Where only a bound is given, the exact number is not on record here.

One test has as its target Carbonic anhydrase 2 (Homo sapiens, UniProt P00918). The test can be described thus: Inhibition of human carbonic anhydrase 2 assessed as reduction in CO2 hydration preincubated for 15 mins to 2 hrs by phenol red dye based stopped flow CO2 hydrase assay.
The target in the next test is Carbonic anhydrase 1 (Homo sapiens, UniProt P00915). Nature of the test: Inhibition of human carbonic anhydrase 1 assessed as reduction in CO2 hydration preincubated for 15 mins to 2 hrs by phenol red dye based stopped flow CO2 hydrase assay.
In the next test the target is Carbonic anhydrase 9 (Homo sapiens, UniProt Q16790). The test can be described thus: Inhibition of human carbonic anhydrase 9 assessed as reduction in CO2 hydration preincubated for 15 mins to 2 hrs by phenol red dye based stopped flow CO2 hydrase assay.
Another test addresses Carbonic anhydrase 4 (Homo sapiens, UniProt P22748). Nature of the test: Inhibition of human carbonic anhydrase 4 assessed as reduction in CO2 hydration preincubated for 15 mins to 2 hrs by phenol red dye based stopped flow CO2 hydrase assay.

Chain of Carbonic anhydrase 1 (P00915 whole entry): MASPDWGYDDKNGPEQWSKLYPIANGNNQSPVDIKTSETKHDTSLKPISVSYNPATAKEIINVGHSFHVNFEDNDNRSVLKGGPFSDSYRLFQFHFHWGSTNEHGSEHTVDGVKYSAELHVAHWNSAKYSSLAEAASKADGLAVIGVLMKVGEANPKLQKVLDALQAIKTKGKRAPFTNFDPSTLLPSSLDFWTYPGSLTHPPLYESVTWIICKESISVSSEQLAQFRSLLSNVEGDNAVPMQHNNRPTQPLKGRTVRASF
Chain of Carbonic anhydrase 4 (P22748 whole entry): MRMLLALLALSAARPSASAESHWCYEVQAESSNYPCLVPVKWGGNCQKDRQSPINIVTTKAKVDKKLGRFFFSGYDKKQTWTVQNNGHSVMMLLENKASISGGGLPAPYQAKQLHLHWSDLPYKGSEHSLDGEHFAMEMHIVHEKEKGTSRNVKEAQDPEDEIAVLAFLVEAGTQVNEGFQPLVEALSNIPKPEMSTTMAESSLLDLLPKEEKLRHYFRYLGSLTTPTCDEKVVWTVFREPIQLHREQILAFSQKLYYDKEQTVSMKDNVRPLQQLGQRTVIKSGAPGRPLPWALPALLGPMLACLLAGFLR

The term Ki denotes a dissociation constant, usually derived from enzyme kinetics or from competition with a known ligand. Regarding `O=C(CCC(=O)Nc1ccc2c(c1)B(O)OC2)Nc1ccc2c(c1)B(O)OC2`, the Ki came out at 0.342 µM at Carbonic anhydrase 2, 2.89 µM on Carbonic anhydrase 1 and 0.68 µM at Carbonic anhydrase 9.
For the compound `O=C(/C=C/C=C/C(=O)Nc1ccc2c(c1)B(O)OC2)Nc1ccc2c(c1)B(O)OC2`, the figures for the Ki on Carbonic anhydrase 2, on Carbonic anhydrase 1 and at Carbonic anhydrase 9 were 3.93 µM, 3.3 µM and 4.87 µM, respectively.
Consider `O=c1c(Nc2ccc3c(c2)B(O)OC3)c(Nc2ccc3c(c2)B(O)OC3)c1=O`, for which the Ki on Carbonic anhydrase 2 turned out to be 2.28 µM; on Carbonic anhydrase 1, 3.08 µM.
On to `O=C(/C=C/C(=O)Nc1ccc2c(c1)B(O)OC2)Nc1ccc2c(c1)B(O)OC2`, for which the Ki on Carbonic anhydrase 2 came to 1.71 µM; on Carbonic anhydrase 1 it was 3.21 µM; at Carbonic anhydrase 9, 1.48 µM.
In the case of `O=C(CCCCC(=O)Nc1ccc2c(c1)B(O)OC2)Nc1ccc2c(c1)B(O)OC2`, the Ki on Carbonic anhydrase 2 turned out to be 0.541 µM; at Carbonic anhydrase 1 it was 1.67 µM; on Carbonic anhydrase 9 it was 0.312 µM.
As to `O=C(Nc1ccc2c(c1)B(O)OC2)c1cc(C(=O)Nc2ccc3c(c2)B(O)OC3)cc(C(=O)Nc2ccc3c(c2)B(O)OC3)c1`, the Ki at Carbonic anhydrase 2 is 39.3 µM; at Carbonic anhydrase 1 it was 21.9 µM; on Carbonic anhydrase 4, > 100 µM; on Carbonic anhydrase 9 it was 8.63 µM.
As for `CC(C)(C)OC(=O)N[C@@H](CC(=O)Nc1ccc2c(c1)B(O)OC2)C(=O)Nc1ccc2c(c1)B(O)OC2`, the Ki on Carbonic anhydrase 2 came out at 0.908 µM; on Carbonic anhydrase 1 it was 0.813 µM; at Carbonic anhydrase 9, 0.28 µM.
Regarding `O=C(O)c1ccc2c(c1)B(O)OC2`, the Ki on Carbonic anhydrase 2 is 0.173 µM; at Carbonic anhydrase 1 it was 0.85 µM; at Carbonic anhydrase 9, 0.4 µM.
The matching figures for `OB1OCc2ccc(/N=C/c3ccc(/C=N/c4ccc5c(c4)B(O)OC5)s3)cc21`: 2.34 µM, 4.13 µM and 0.203 µM.
In the same order, the values of `O=C(C/C=C/CC(=O)Nc1ccc2c(c1)B(O)OC2)Nc1ccc2c(c1)B(O)OC2` are 2.58 µM, 2.45 µM and 1.12 µM.
In the same order, the values of `O=C(CC[C@H](NC(=O)OCc1ccccc1)C(=O)Nc1ccc2c(c1)B(O)OC2)Nc1ccc2c(c1)B(O)OC2` are 0.289 µM, 1.78 µM and 0.0643 µM.
Take `O=C(CC(=O)Nc1ccc2c(c1)B(O)OC2)Nc1ccc2c(c1)B(O)OC2`: the Ki on Carbonic anhydrase 2 was found to be 0.339 µM; at Carbonic anhydrase 1, 0.886 µM; at Carbonic anhydrase 9, 0.158 µM.

(Values after ChEMBL document CHEMBL4304795, “Bis-benzoxaboroles: Design, Synthesis, and Biological Evaluation as Carbonic Anhydrase Inhibitors” (ACS Med Chem Lett, 2019).)
